Source: patent US20250145633A1, “SUBSTITUTED FURANOPYRIMIDINE COMPOUNDS AS PDE1 INHIBITORS” (Dart NeuroScience, LLC, priority 2017, published 2025)

Target: human PDE1B enzyme (Homo sapiens (Human), UniProt Q01064)
Experiment: IMAP TR-FRET PDE1B enzymatic assay
Type: biochemical
Details: negative log of half-maximal molar inhibitory concentration, 200 nM FAM-cAMP, values given as bins; for IC50: read-out: PDE1b (pIC50) (converted)
Method in brief: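 Full-length GST-tagged human PDE1B (250 pg/well) in IMAP BSA buffer with 10 U/ml calmodulin and 2.5 mM CaCl2; compound pre-incubated 5 min at room temperature, then 200 nM (final) FAM-cAMP for 30 min. IMAP binding reagent/Tb added, 1 h; TR-FRET 520/490 ratio read. IC50 from sigmoidal dose-response fit.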

Cc1oc2ncnc(NC3(C)CC3)c2c1C(=O)N1CCN(c2ccc(F)c(F)c2)C(=O)C1 [Example 64, 1-(3,4-Difluorophenyl)-4-{6-methyl-4-[(1-methylcyclopropyl)amino]furo[2,3-d]pyrimidine-5-carbonyl}piperazin-2-one]
IC50: 10 to 100 nM

Cc1oc2ncnc(NC3(C)CC3)c2c1C(=O)N1C[C@@H]2[C@H](C1)[C@H]2c1ccc(C(F)(F)F)cn1 [Example 65, 6-Methyl-N-(1-methylcyclopropyl)-5-[(1R,5S,6S)-6-[5-(trifluoromethyl)pyridin-2-yl]-3-azabicyclo[3.1.0]hexane-3-carbonyl]furo[2,3-d]pyrimidin-4-amine]
IC50: 100 to 1000 nM

Cc1oc2ncnc(NC3(C)CC3)c2c1C(=O)NCc1cccc(C#N)c1 [Example 66, N-[(3-Cyanophenyl)methyl]-6-methyl-4-[(1-methylcyclopropyl)amino]furo[2,3-d]pyrimidine-5-carboxamide]
PDE1b (pIC50): >8

Cc1oc2ncnc(NC3(C)CC3)c2c1C(=O)N1CCC(O)(c2ccc(F)cc2)C1 (stereo not drawn) [Example 67, 3-(4-Fluorophenyl)-1-{6-methyl-4-[(1-methylcyclopropyl)amino]furo[2,3-d]pyrimidine-5-carbonyl}pyrrolidin-3-ol]
PDE1b (pIC50): >8

Cc1oc2ncnc(NC3(C)CC3)c2c1C(=O)NC(C)c1ccc(F)cc1 (stereo not drawn) [Example 68, N-[1-(4-Fluorophenyl)ethyl]-6-methyl-4-[(1-methylcyclopropyl)amino]furo[2,3-d]pyrimidine-5-carboxamide]
IC50: 10 to 100 nM

Cc1oc2ncnc(NC3(C)CC3)c2c1C(=O)NC1(c2ccc(F)cc2)CC1 [Example 69, N-[1-(4-Fluorophenyl)cyclopropyl]-6-methyl-4-[(1-methylcyclopropyl)amino]furo[2,3-d]pyrimidine-5-carboxamide]
PDE1b (pIC50): >8

Cc1oc2ncnc(NC3(C)CC3)c2c1C(=O)N1CCC(c2ccccn2)C1 (stereo not drawn) [Example 70, 6-Methyl-N-(1-methylcyclopropyl)-5-[3-(pyridin-2-yl)pyrrolidine-1-carbonyl]furo[2,3-d]pyrimidin-4-amine]
IC50: 10 to 100 nM

Cc1oc2ncnc(NC3(C)CC3)c2c1C(=O)N1CCC(c2cccnc2)C1 (stereo not drawn) [Example 71, 6-Methyl-N-(1-methylcyclopropyl)-5-[3-(pyridin-3-yl)pyrrolidine-1-carbonyl]furo[2,3-d]pyrimidin-4-amine]
IC50: 10 to 100 nM

Cc1oc2ncnc(NC3(C)CC3)c2c1C(=O)N1CCC(c2ccncc2)C1 (stereo not drawn) [Example 72, 6-Methyl-N-(1-methylcyclopropyl)-5-[3-(pyridin-4-yl)pyrrolidine-1-carbonyl]furo[2,3-d]pyrimidin-4-amine]
IC50: 10 to 100 nM

Cc1oc2ncnc(NC3(C)CC3)c2c1C(=O)NCc1nccs1 [Example 73, 6-Methyl-4-[(1-methylcyclopropyl)amino]-N-(1,3-thiazol-2-ylmethyl)furo[2,3-d]pyrimidine-5-carboxamide]
IC50: 10 to 100 nM

Cc1oc2ncnc(NC3(C)CC3)c2c1C(=O)NCc1cncs1 [Example 74, 6-Methyl-4-[(1-methylcyclopropyl)amino]-N-(1,3-thiazol-5-ylmethyl)furo[2,3-d]pyrimidine-5-carboxamide]
IC50: 10 to 100 nM

Cc1oc2ncnc(NC3(C)CC3)c2c1C(=O)NCc1cscn1 [Example 75, 6-Methyl-4-[(1-methylcyclopropyl)amino]-N-(1,3-thiazol-4-ylmethyl)furo[2,3-d]pyrimidine-5-carboxamide]
IC50: 10 to 100 nM

Cc1oc2ncnc(NC3(C)CC3)c2c1C(=O)NCc1ccccn1 [Example 76, 6-Methyl-4-[(1-methylcyclopropyl)amino]-N-(pyridin-2-ylmethyl)furo[2,3-d]pyrimidine-5-carboxamide]
IC50: 10 to 100 nM

Cc1oc2ncnc(NC3(C)CC3)c2c1C(=O)NC(C)c1ccccn1 (stereo not drawn) [Example 77, 6-Methyl-4-[(1-methylcyclopropyl)amino]-N-[1-(pyridin-2-yl)ethyl]furo[2,3-d]pyrimidine-5-carboxamide]
IC50: 10 to 100 nM

Cc1oc2ncnc(NC3(C)CC3)c2c1C(=O)NC(C)(C)c1ccccn1 [Example 78, 6-Methyl-4-[(1-methylcyclopropyl)amino]-N-[2-(pyridin-2-yl)propan-2-yl]furo[2,3-d]pyrimidine-5-carboxamide]
IC50: 10 to 100 nM

Cc1oc2ncnc(NC3(C)CC3)c2c1C(=O)NC1(c2ccccn2)CC1 [Example 79, 6-Methyl-4-[(1-methylcyclopropyl)amino]-N-[1-(pyridin-2-yl)cyclopropyl]furo[2,3-d]pyrimidine-5-carboxamide]
IC50: 10 to 100 nM

CNC(=O)c1c(C)oc2ncnc(NC3(C)CC3)c12 [Example 80, N,6-Dimethyl-4-[(1-methylcyclopropyl)amino]furo[2,3-d]pyrimidine-5-carboxamide]
IC50: 100 to 1000 nM

Cc1oc2ncnc(NC3(C)CC3)c2c1C(=O)N(C)C [Example 81, N,N,6-Trimethyl-4-[(1-methylcyclopropyl)amino]furo[2,3-d]pyrimidine-5-carboxamide]
IC50: 100 to 1000 nM

CCNC(=O)c1c(C)oc2ncnc(NC3(C)CC3)c12 [Example 82, N-Ethyl-6-methyl-4-[(1-methylcyclopropyl)amino]furo[2,3-d]pyrimidine-5-carboxamide]
IC50: 10 to 100 nM

Cc1oc2ncnc(NC3(C)CC3)c2c1C(=O)NC1COC1 [Example 83, 6-Methyl-4-[(1-methylcyclopropyl)amino]-N-(oxetan-3-yl)furo[2,3-d]pyrimidine-5-carboxamide]
IC50: 100 to 1000 nM

Cc1oc2ncnc(NC3(C)CC3)c2c1C(=O)N1CCC(C)(c2ccc(F)cc2)C1 (stereo not drawn) [Example 85, 5-[3-(4-Fluorophenyl)-3-methylpyrrolidine-1-carbonyl]-6-methyl-N-(1-methylcyclopropyl)furo[2,3-d]pyrimidin-4-amine]
PDE1b (pIC50): >8

Cc1oc2ncnc(NC3(C)CC3)c2c1C(=O)NC1(C(F)(F)F)CC1 [Example 86, 6-Methyl-4-[(1-methylcyclopropyl)amino]-N-[1-(trifluoromethyl)cyclopropyl]furo[2,3-d]pyrimidine-5-carboxamide]
IC50: 10 to 100 nM

Cc1oc2ncnc(NC3(C)CC3)c2c1C(=O)NCc1ccc(C#N)c(F)c1 [Example 87, N-[(4-Cyano-3-fluorophenyl)methyl]-6-methyl-4-[(1-methylcyclopropyl)amino]furo[2,3-d]pyrimidine-5-carboxamide]
IC50: 10 to 100 nM

Cc1oc2ncnc(NC3(C)CC3)c2c1C(=O)NCc1ccc(F)c(C#N)c1 [Example 88, N-[(3-Cyano-4-fluorophenyl)methyl]-6-methyl-4-[(1-methylcyclopropyl)amino]furo[2,3-d]pyrimidine-5-carboxamide]
PDE1b (pIC50): >8

Cc1oc2ncnc(NC3(C)CC3)c2c1C(=O)NC1(C)CC1 [Example 89, 6-Methyl-N-(1-methylcyclopropyl)-4-[(1-methylcyclopropyl)amino]furo[2,3-d]pyrimidine-5-carboxamide]
IC50: 10 to 100 nM

Cc1oc2ncnc(NC3(C)CC3)c2c1C(=O)NCC1COC1 [Example 90, 6-Methyl-4-[(1-methylcyclopropyl)amino]-N-(oxetan-3-ylmethyl)furo[2,3-d]pyrimidine-5-carboxamide]
IC50: 100 to 1000 nM

Cc1oc2ncnc(NC3(C)CC3)c2c1C(=O)NC1(C#N)CCC1 [Example 91, N-(1-Cyanocyclobutyl)-6-methyl-4-[(1-methylcyclopropyl)amino]furo[2,3-d]pyrimidine-5-carboxamide]
IC50: 10 to 100 nM
